In patent publication US4719297A, “Acylphosphine compounds and their use as photoinitiators” (priority 1981, dated 1988):

Legend:
[1] = Hardening activity of UP resin A under UV light, temperature/time curve (Table 2); conditions: 0.2% compound
Experimental: (§1) To measure the hardening activity, the temperature curve for the unsaturated polyester resin (UP resin) was recorded during exposure to UV light. […] To avoid heat losses during the exposure to UV light, the lid was embedded in rigid expanded polyurethane foam. The UV light source used comprised 5 fluorescent tubes (TLAK 40 W/05 from Philips) side by side, at a distance of 8.5 cm from the UP resin surface.
(§2) The hardening time HT25° C.-T.sbsb.max and the maximum hardening temperature Tmax achieved were obtained, as characteristic parameters for the hardening activity, from the recorded temperature/time curves. The hardening time is the interval in which the sample temperature increases from 25° C. to Tmax.
(§3) The Examples and Comparative Examples were carried out using the following unsaturated polyester resins:
Resin A was a 65% strength solution, in styrene, of an unsaturated polyester of maleic acid, o-phthalic acid, ethylene glycol and propylene 1,2-glycol in the molar ratio of 1:2:2.3:0.70, the solution being stabilized with 0.01% of hydroquinone.
(§4) The hardening activity of the novel compounds 1 to 16 (cf. Table 1) was compared with the properties of the following compounds: […]

[2] = Hardening activity of UP resin B under UV light, temperature/time curve (Table 2); conditions: 0.2% compound
Experimental: as §1, §2, §3
Resin B was a 67% strength solution, in styrene, of an unsaturated polyester of maleic acid, tetrahydrophthalic acid and diethylene glycol in the molar ratio of 1:0.5:1.5, the solution being stabilized with 0.01% of hydroquinone.
as §4

[3] = Hardening activity of UP resin C under UV light, temperature/time curve (Table 2); conditions: 0.2% compound
Experimental: as §1, §2, §3
Resin C was a 66% strength solution, in styrene, of an unsaturated polyester of maleic acid, o-phthalic acid and propylene 1,2-glycol in the molar ratio of 1:0.5:1.5, the solution being stabilized with 0.01% of hydroquinone.
as §4

[4] = Shelf life of UP resin A containing a photoinitiator, stored at 60° C. (Table 3); type: physicochemical; conditions: 0.2% initiator, dark
Experimental: (§5) To test the shelf life, 6.6 ml of each of the UP resins A, B and C (cf. Example 5) with an initiator content of 0.2% were introduced into brown sample bottles, and the closed bottles were stored at 60° C. At intervals of about 12 hours, the bottles were turned to determine whether gel particles had formed. As a measure of the shelf life, Table 3 gives the maximum storage time at which gel particles were still not observed.
(§6) In addition to the comparative compounds I, II and III, compound V below was also tested: V 2,4,6-trimethylbenzoyldiphenylphosphine oxide as described in U.S. Pat. No. 4,265,723.
(§7) The numbering scheme of the compounds in Table 3 is based on that of Table 1.

[5] = Shelf life of UP resin B containing a photoinitiator, stored at 60° C. (Table 3); type: physicochemical; conditions: 0.2% initiator, dark
Experimental: as §5, §6, §7

[6] = Shelf life of UP resin C containing a photoinitiator, stored at 60° C. (Table 3); type: physicochemical; conditions: 0.2% initiator, dark
Experimental: as §5, §6, §7

[7] = Shelf life of resins containing the compounds, overall comparison; type: physicochemical; conditions: Table 3, in words
Experimental: as §5, §6

[8] = Photopolymerization of monomer emulsion, properties of resulting polymer dispersions (Table 5)
Experimental: A monomer emulsion was prepared from 50 parts of methyl acrylate, 50 parts of ethyl acrylate, 1.3 parts of a 40% strength C15 -paraffin sulfonate, 1.3 parts of an adduct of isooctylphenol with 25 units of ethylene oxide (20% strength) and 210 parts of water in a conventional mixing unit.
This emulsion was introduced into a 1 l glass flask provided with an internal thermometer and a stirrer, and was freed from oxygen by twice evacuating the flask and gassing the emulsion with nitrogen. X parts of the photoinitiator in 6.7 parts of water were added, and the reaction vessel was then exposed for 60 minutes to light from a high pressure mercury vapor lamp of Type HQL/R 400 W from Osram, located 30 cm above the vessel. The beginning of polymerization was evident from an increase in the temperature. The amounts of photoinitiator employed and the properties of the resulting polymer dispersions are summerized in Table 5, photoinitiator 4 (cf. Table 1) being compared with photoinitiator VI (described in U.S. Pat. No. 4.257,859).

[9] = 1.7 parts X employed, 60 min exposure

SMILES | hardening time HT 25°-Tmax [1] | maximum hardening temperature Tmax [1] [°C] | hardening time HT 25°-Tmax [2] | maximum hardening temperature Tmax [2] [°C] | hardening time HT 25°-Tmax [3] | maximum hardening temperature Tmax [3] [°C] | Shelf life [4] [h] | shelf life of resins compared with compounds II, III and V [7] | further results
Cc1cc(C)c(C(=O)P(=O)(O)c2ccccc2)c(C)c1 [Compound 11] | 5/23 | 118 | 4/30 | 124 | 5/15 | 120 | 180 | substantially superior | Shelf life [5]: 155 h; Shelf life [6]: 204 h; shelf life of resins compared with resins containing I [7]: not significantly different
C[N+]1(CC(O)(C(=O)c2ccccc2)c2ccccc2)CCCC1 (centres unmarked) [VI] | – | – | – | – | – | – | – | – | polymerization outcome ([8]; 0.04 parts X employed): no polymerization; Fikentscher K value [8, 9]: 146.1; Residual monomers, ethyl acrylate [8, 9]: 0.012%; Residual monomers, methyl acrylate [8, 9]: 0.036%; Solids content [8, 9]: 30.8%; initiation of photopolymerization at very low starting concentrations ([8]; very low starting concentrations, in words): no longer initiates polymerization
Cc1cc(C)c(C(=O)P(=O)(O)c2ccccc2)c(C)c1 [Compound 5] | 5/38 | 118 | – | – | – | – | – | – | –
Cc1cc(C)c(C(=O)P(=O)(O)c2ccccc2)c(C)c1 [Compound 17] | 5/38 | 120 | – | – | – | – | 270 | substantially superior | –
Cc1cc(C)c(C(=O)P(=O)(O)c2ccccc2)c(C)c1 [Compound 15] | 7/15 | 113 | 8/00 | 119 | 7/30 | 109 | – | – | –
Cc1cc(C)c(C(=O)P(=O)(OC(C)C)c2ccccc2)c(C)c1 (centres unmarked) [II, isopropyl 2,4,6-trimethylbenzoylphenylphosphinate, reference compound] | 6/45 | 107 | 5/15 | 128 | 6/08 | 120 | 140 | – | Shelf life [5]: 155 h; Shelf life [6]: 120 h
Cc1cc(C)c(C(=O)P(=O)(O)c2ccccc2)c(C)c1 [Compound 18] | – | – | – | – | – | – | 270 | substantially superior | –
Cc1cc(C)c(C(=O)P(=O)(O)c2ccccc2)c(C)c1 [Compound 13] | 6/08 | 115 | 5/30 | 126 | 5/23 | 121 | – | – | –
Cc1cc(C)c(C(=O)P(=O)(O)c2ccccc2)c(C)c1 [Compound 8, Calcium bis-(2,4,6-trimethylbenzoylphenylphosphinate)] | 5/53 | 114 | 6/00 | 130 | – | – | – | – | –
Cc1cc(C)c(C(=O)P(=O)(O)c2ccccc2)c(C)c1 [Compound 16] | 5/15 | 115 | – | – | – | – | – | – | –
Cc1cc(C)c(C(=O)P(=O)(O)c2ccccc2)c(C)c1 [Compound 9] | 5/53 | 110 | 4/45 | 125 | 5/45 | 129 | 180 | substantially superior | Shelf life [5]: 140 h; Shelf life [6]: 180 h; shelf life of resins compared with resins containing I [7]: not significantly different
Cc1cc(C)c(C(=O)P(=O)(O)c2ccccc2)c(C)c1 [Compound 6] | 5/53 | 115 | – | – | – | – | – | – | –
